Source: patent US12570665B2, “Compositions comprising fullerenyl mesochlorin nano-photosensitizers with covalently bound antibiotics and their uses in combination therapy” (priority 2019, dated 2026)

Assays:
A. baumannii (AF0004) = conditions: 12.5 μM
Source text: Bacterial strains: Two Gram-positive MRSA strains (IQ0064 and IB0004) and one Gram-negative Acinetobacter baumannii strain (AF0004) were studied. All of them are clinical isolates. MRSA IQ0064 was a multidrug-resistant strain isolated from wounded military personnel deployed to Iraq. According to a microbiology test, IQ0064 strain was resistant to ampicillin, cefazolin, cefoxitin, oxacillin, and penicillin. MRSA IB0004 was an isolate from a keratitis patient. A. baumannii AF0004 was a multidrug-resistant strain isolated from wounded military personnel deployed to Afghanistan. […]
Light source: Light was delivered topically using a noncoherent light source (LumaCare, Newport Beach, CA) that provided the full spectrum of visible light (400 to 800 nm). […] The light power was routinely measured using a laser power meter (Fieldmate; Coherent, Portland, OR).
Antimicrobial photodynamic inactivation (aPDI) of bacteria: Bacterial suspensions were adjusted to 10^8 CFU/mL, inoculated to 96-well plates (200 μL/well), incubated with fullerenes at 6.25, 12.50, 18.75, and 25.00 μM concentrations for 1.0 h and then either left in dark or irradiated with 660 nm light at 115 J/cm^2. […] Survival fractions were routinely expressed as ratios of CFU of bacterial cells treated with light and fullerene monoadducts, or treated with fullerenes in the absence of light, to CFU of bacteria treated with neither.

MRSA (strain IQ0064) = type: cell-based, Staphylococcus aureus
Method: (§1) FIG. 3. (A) aPDT against vancomycin-resistant and sensitive strains of E. fecium (VSE). Log10 survival fractions of E. fecium (10^8 cells/mL) incubated for 30 min with 50-nM concentration of VCM-mPheZn-N5^+ (LC39, see Huang, L., Wang, M., Chiang, L. Y., Hamblin, M. R., et al. Photochem. Photobiol. Sci. 2018, 17, 638-651) by irradiation with increasing exposes of a 415-nm LED light. […] Irradiation was carried out with (C) the radiant exposure of 115 J/cm^2 at 660 nm (LED light, 40 mW/cm^2) and (D) the radiant exposure of 20 J/cm^2 at 405 nm (LED light, 24 mW/cm^2). All data were represented as login survival fractions as a function of both aPDI agent concentration and light wavelength/exposure, where the dashed red line in Panel Cd represents the detection limit of MRSA CFU. […] (E) Concentration dependent aPDI of MRSA (strain IQ0064) by ChlPd-(C70>)N10^+ (LC41) upon illumination at 115 J/cm^2 and 660-nm wavelength (40 mW/cm^2).
Bacterial strains: Two Gram-positive MRSA strains (IQ0064 and IB0004) and one Gram-negative Acinetobacter baumannii strain (AF0004) were studied. All of them are clinical isolates. MRSA IQ0064 was a multidrug-resistant strain isolated from wounded military personnel deployed to Iraq. According to a microbiology test, IQ0064 strain was resistant to ampicillin, cefazolin, cefoxitin, oxacillin, and penicillin. MRSA IB0004 was an isolate from a keratitis patient. A. baumannii AF0004 was a multidrug-resistant strain isolated from wounded military personnel deployed to Afghanistan. AF0004 was resistant to a panel of important antibiotics including amikacin, ampicillin, aztreonam, cefazolin, cefepime, cefoxitin, ceftazidime, ceftriaxone, cefuroxime, ciprofloxacin, gentamicin, imipenem, levofloxacin, meropenem, nitrofurantoin, tetracycline and trimethoprim-sulfamethoxazole.
Light source: Light was delivered topically using a noncoherent light source (LumaCare, Newport Beach, CA) that provided the full spectrum of visible light (400 to 800 nm). The system employed interchangeable filter probes and produced a uniform spot for illumination. We used a 660±15-nm filter probe. The irradiance of 40 mW/cm^2 was used throughout the study. The light power was routinely measured using a laser power meter (Fieldmate; Coherent, Portland, OR).
Antimicrobial photodynamic inactivation (aPDI) of bacteria: Bacterial suspensions were adjusted to 10^8 CFU/mL, inoculated to 96-well plates (200 μL/well), incubated with fullerenes at 6.25, 12.50, 18.75, and 25.00 μM concentrations for 1.0 h and then either left in dark or irradiated with 660 nm light at 115 J/cm^2. At the completion of each stage of illumination, the contents of the wells were well mixed before sampling. Aliquots (30 μL) were taken from each well to determine CFU. The aliquots were serially diluted 10-fold in phosphate-buffered saline (PBS) to give dilutions of 10^1 to 10^5 times in addition to the original concentration; then, 10 μL aliquots of each of the dilutions were streaked horizontally on square BHI plates. Plates were streaked in triplicate and incubated for 24 h at 37° C. in the dark to allow colony formation. Control groups included bacterial cells that were treated with light alone (no fullerene monoadducts added), and cells treated with fullerene monoadducts (no light) as the dark control. Survival fractions were routinely expressed as ratios of CFU of bacterial cells treated with light and fullerene monoadducts, or treated with fullerenes in the absence of light, to CFU of bacteria treated with neither.

MRSA cells = experiment: Binding to MRSA cells by confocal microscopy fluorescence imaging; type: cell-based, Staphylococcus aureus; conditions: 405-nm irradiation, red emission 640-780 nm
MRSA = conditions: against MRSA
E. fecium = conditions: 50 nM, 415 nm irradiation, VCM-resistant and sensitive strains
Method: as §1

Compound: 3a-hydroxy-3b-aminoethylene-aminoPEGlycolated vancomycin-15b-methyl-13a,17c-di[N,N′,N,N,N,N-hexapropyl-panta(aminoethylene)]amide-mesochlorin [LC40e]
- dark toxicity to A. baumannii cells (A. baumannii (AF0004); no light): about 1.5 log10 CFU
- CFU reduction (inactivation of A. baumannii CFUs) (A. baumannii (AF0004); red light 660 nm, 115 J/cm^2): > 6 log10 CFU
- photokilling efficacy on MRSA (MRSA (strain IQ0064); 10-20 μM, 405-nm irradiation, 20 J/cm^2): 5.0 log10
- CFU reduction (photokilling of MRSA) (MRSA (strain IQ0064); 10-20 μM, 660-nm light, 115 J/cm^2): > 6.5 log10 CFU
- light mediated killing of MRSA cells (qualitative) (MRSA (strain IQ0064); 405- and 660-nm photoexcitation, up to 20 μM): susceptible to light mediated killing
- additional increase in the inactivation of bacteria by the combination of antibiotics and aPDT (MRSA (strain IQ0064); combination versus antibiotic activity alone): 3 log10 CFU
- antibiotic activity, CFU killing without red-light irradiation (MRSA (strain IQ0064); without red-light irradiation, bacterium not given, MRSA implied): 4 log10 CFU
- red FL emission on pretreated MRSA cells (relative cell affinity) (MRSA cells): significantly enhanced
- MIC (MRSA): 2.0 mg/L

Compound: 3a-hydroxy-3b-vancomycin-15b-methyl-17c-[N,N′,N,N,N,N-hexapropyl-penta(aminoethylene)]amide-[Zn^+2]mesopheophorbide [LC39]
- aPDT effect (E. fecium): excellent aPDT effect

Compound: CN[C@H](CC(C)C)C(=O)N[C@H]1C(=O)N[C@@H](CC(N)=O)C(=O)N[C@H]2C(=O)N[C@H]3C(=O)N[C@H](C(=O)N[C@H](C(=O)O)c4cc(O)cc(O)c4-c4cc3ccc4O)[C@H](O)c3ccc(c(Cl)c3)Oc3cc2cc(c3O[C@@H]2O[C@H](CO)[C@@H](O)[C@H](O)[C@H]2O[C@H]2C[C@](C)(N)[C@H](O)[C@H](C)O2)Oc2ccc(cc2Cl)[C@H]1O [vancomycin, reference compound]
- effect on viability of MRSA cells (MRSA (strain IQ0064); equivalent dose, control, 660 nm and 405 nm (FIGS. 3Ca, 3Da)): negligible effect
